Series [1] has as its target T1, P-glycoprotein (P-gp) (Homo sapiens, UniProt P08183). The series can be described thus: SPA saturation binding of [3H]-vinblastine to P-gp (KB-V1 cell membranes). The conditions noted are these: [3H]-vinblastine 5 to 55 nM, specific binding fitted with Prism; read-out: KD (binding dissociation constant). Further details: endogenous in cells; host or cells: KB-V1 cells (multidrug-resistant subclone of KB-3-1, HeLa-derived); sucrose-gradient purified plasma membranes. The protocol:
The specific signal values versus the amount of radioligand was fitted to the equation using the Prism software (GraphPad Software Inc, San Diego, Calif.) as the following: [formula] where Bmax is the maximal binding, [L] is a ligand concentration, and KD is the binding dissociation constant. The fitting gave the KD value of 4 nM, which is in agreement with literature data.

Series [2] concerns the target T1, P-glycoprotein (P-gp). The series can be described thus: Scintillation proximity assay (SPA): competition with [3H]vinblastine binding to P-gp in KB-V1 cell membranes. To be noted: mean of triplicates; for effect of test compound on P-gp specific binding signal: test compound 10 μM final concentration, FIG. 8.
Method: The samples were incubated for an additional 3 to 24-hours.
The methods described herein are based on the scintillation proximity assay (SPA) technique and its use to detect signal changes in the presence of a test compound. […] The signal should be reduced when the test compound is a P-gp substrate and/or inhibitor because of competition on the binding site or inhibition of the binding.

T1 sequence (P08183 whole entry): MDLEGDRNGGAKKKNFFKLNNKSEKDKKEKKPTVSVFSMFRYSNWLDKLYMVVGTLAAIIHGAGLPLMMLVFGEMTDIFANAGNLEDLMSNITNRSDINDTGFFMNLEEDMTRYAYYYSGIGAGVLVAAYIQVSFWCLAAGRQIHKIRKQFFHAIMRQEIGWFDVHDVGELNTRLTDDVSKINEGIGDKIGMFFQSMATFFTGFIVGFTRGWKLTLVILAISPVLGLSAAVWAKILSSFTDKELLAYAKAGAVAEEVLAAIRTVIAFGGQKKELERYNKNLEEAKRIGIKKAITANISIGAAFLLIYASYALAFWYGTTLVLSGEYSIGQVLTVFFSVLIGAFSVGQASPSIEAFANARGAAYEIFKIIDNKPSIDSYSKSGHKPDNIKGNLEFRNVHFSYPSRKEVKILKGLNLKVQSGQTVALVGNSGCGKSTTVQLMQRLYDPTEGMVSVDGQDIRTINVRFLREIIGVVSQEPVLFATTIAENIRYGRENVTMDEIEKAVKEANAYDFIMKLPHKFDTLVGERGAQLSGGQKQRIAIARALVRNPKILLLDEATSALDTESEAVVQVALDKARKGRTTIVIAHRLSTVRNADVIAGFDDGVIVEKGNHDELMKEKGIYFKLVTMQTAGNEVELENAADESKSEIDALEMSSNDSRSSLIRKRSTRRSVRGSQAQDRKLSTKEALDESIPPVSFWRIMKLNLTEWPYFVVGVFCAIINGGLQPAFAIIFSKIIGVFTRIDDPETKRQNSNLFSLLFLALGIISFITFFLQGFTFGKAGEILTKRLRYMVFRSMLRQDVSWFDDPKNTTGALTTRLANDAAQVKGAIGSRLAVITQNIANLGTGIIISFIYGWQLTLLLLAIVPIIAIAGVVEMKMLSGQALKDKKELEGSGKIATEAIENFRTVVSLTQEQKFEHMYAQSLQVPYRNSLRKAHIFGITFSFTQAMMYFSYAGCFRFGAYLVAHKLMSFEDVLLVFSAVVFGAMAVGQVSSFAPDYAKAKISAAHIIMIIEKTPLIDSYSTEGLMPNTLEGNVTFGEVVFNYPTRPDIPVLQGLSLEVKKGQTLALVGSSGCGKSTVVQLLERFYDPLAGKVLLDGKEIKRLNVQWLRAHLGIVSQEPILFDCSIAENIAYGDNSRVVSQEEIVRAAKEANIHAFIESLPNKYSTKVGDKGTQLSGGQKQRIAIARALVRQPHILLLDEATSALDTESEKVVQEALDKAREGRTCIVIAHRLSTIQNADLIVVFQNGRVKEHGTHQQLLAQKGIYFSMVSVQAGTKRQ

On to `CC[C@]1(O)C[C@@H]2CN(CCc3c([nH]c4ccccc34)[C@@](C(=O)OC)(c3cc4c(cc3OC)N(C)[C@H]3[C@@](O)(C(=O)OC)[C@H](OC(C)=O)[C@]5(CC)C=CCN6CC[C@]43[C@@H]65)C2)C1` [[^3H]-vinblastine], for which, on P-glycoprotein (P-gp) [1], the dissociation constant (Kd) stood at 4 nM.
As for `Cn1c(=O)c2c(ncn2C)n(C)c1=O` [caffeine], the “effect of test compound on P-gp specific binding signal” value on P-glycoprotein (P-gp) [2] is “no impact on the P-gp signal”.
For the compound Ivermectin, the half-inhibitory concentration (IC50) at P-glycoprotein (P-gp) [2] (read-out: IC50 values determined by SPA, inhibition of [3H]vinblastine binding to P-gp, KB-V1 membranes, WGA-Ysi beads, PRISM fit) is 362 nM.
Take `COc1cccc2c1C(=O)c1c(O)c3c(c(O)c1C2=O)C[C@@](O)(C(=O)CO)C[C@@H]3O[C@H]1C[C@H](N)[C@H](O)[C@H](C)O1` [doxorubicin]: at P-glycoprotein (P-gp) [2], the “effect of test compound on P-gp specific binding signal” value is “did not appear to interfere with the P-gp signal”.
The same measure, in the same setting: the result for `CN(Cc1cnc2nc(N)nc(N)c2n1)c1ccc(C(=O)N[C@@H](CCC(=O)O)C(=O)O)cc1` [methotrexate] reads “did not appear to interfere with the P-gp signal”.

(Values after patent US20070111328A1, “Scintillation proximity assay for the identification of P-glycoprotein modulators” (priority 2005, published 2007).)
